Laboratory results reported in patent US20230226074A1, “METHODS OF USE FOR PYRIMIDINES AS FERROPORTIN INHIBITORS” (Global Blood Therapeutics, Inc., priority 2020, published 2023).

target: T1, human ferroportin (Homo sapiens, UniProt Q9NP59); assay: In-vitro ferroportin internalization assay (luciferase reporter); format: cell-based; conditions: average pEC50; stably-transfected CHO cell line expressing human ferroportin tagged to a luciferase reporter; 6 h incubation with test compound
T1 construct: luciferase reporter (probably NanoLuc, inferred from the Nano-Glo Luciferase Assay System read-out); expressed in transfected cells; host or cells: CHO cells, stably transfected, expression induced with doxycycline
T1 sequence (Q9NP59 1-571): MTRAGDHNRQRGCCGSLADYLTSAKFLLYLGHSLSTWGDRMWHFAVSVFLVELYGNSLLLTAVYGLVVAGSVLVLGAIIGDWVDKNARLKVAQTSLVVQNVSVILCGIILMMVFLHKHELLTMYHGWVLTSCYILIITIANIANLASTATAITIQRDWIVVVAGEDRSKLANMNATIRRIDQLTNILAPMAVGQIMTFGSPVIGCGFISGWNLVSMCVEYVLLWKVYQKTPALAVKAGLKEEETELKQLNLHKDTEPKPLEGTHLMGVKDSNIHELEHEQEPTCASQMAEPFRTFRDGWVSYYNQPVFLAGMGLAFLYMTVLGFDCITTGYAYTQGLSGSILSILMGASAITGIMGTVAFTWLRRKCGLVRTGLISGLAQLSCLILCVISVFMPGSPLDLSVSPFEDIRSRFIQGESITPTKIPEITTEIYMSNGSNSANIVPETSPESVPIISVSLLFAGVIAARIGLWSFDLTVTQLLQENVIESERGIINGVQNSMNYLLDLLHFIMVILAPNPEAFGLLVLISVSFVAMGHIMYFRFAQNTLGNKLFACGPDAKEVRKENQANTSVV
Procedure: The protocol for this assay is generally as described in WO2018/128828, incorporated herein by reference in its entirety. Functional internalization of ferroportin protein was measured using a stably-transfected CHO cell line expressing the human ferroportin tagged to a luciferase reporter. Cells were plated for 24 h in the presence of ferric ammonium citrate (FAC). Ferroportin protein expression was induced with doxycycline for 24 h. The next day, the compounds were added. Test compounds were dissolved in DMSO. Cells were incubated with the test compounds for 6 h, and subsequently luciferase activity was measured using the Nano-Glo Luciferase Assay System and Glomax (Promega, Madison, Wis.). The average pEC50 was determined for the test compounds.

pEC50 | SMILES
7.2 | COc1ccnc(-c2nc3c(c(N(C)CC(=O)N[C@H]4CCC[C@H]4O)n2)CCC3)c1 (single isomer, unassigned) [Compound 171]
7.2 | COc1ccc(NC(=O)C(C(C)C)N(C)c2nc(-c3ccccn3)nc3c2CCC3)cn1 (single isomer, unassigned) [Compound 316]
7.1 | CC(C)C(C(=O)Nc1cnn(C)c1)N(C)c1nc(-c2ccccn2)nc2c1CCC2 (single isomer, unassigned) [Compound 317]
7.5 | CN(CC(=O)Nc1cccc(F)c1)c1nc(-c2ccccn2)nc2c1CCC2 [Compound 74, N-(3-fluorophenyl)-2-{methyl[2-(pyridin-2-yl)-5H,6H,7H-cyclopenta[d]pyrimidin-4-yl]amino}acetamide]
7.6 | COc1ccnc(-c2nc3c(c(N(C)CC(=O)NC(C)(C)CO)n2)CCC3)c1 [Compound 136, N-(1-hydroxy-2-methylpropan-2-yl)-2-{[2-(4-methoxypyridin-2-yl)-5H,6H,7H-cyclopenta[d]pyrimidin-4-yl](methyl)amino}acetamide]
6.9 | COCCN(C)c1nc(-c2ccccn2)nc2sc(C)c(C)c12 [Compound 179, N-(2-methoxyethyl)-N,5,6-trimethyl-2-(pyridin-2-yl)thieno[2,3-d]pyrimidin-4-amine]
6.1 | Cc1sc2nc(-c3ccccn3)nc(N(C)CCN3CCCC3=O)c2c1C [Compound 180, 1-(2-{[5,6-dimethyl-2-(pyridin-2-yl)thieno[2,3-d]pyrimidin-4-yl](methyl)amino}ethyl)pyrrolidin-2-one]
7 | Cc1sc2nc(-c3ccccn3)nc(N(C)CC(=O)Nc3ccccc3)c2c1C [Compound 182, 2-{[5,6-dimethyl-2-(pyridin-2-yl)thieno[2,3-d]pyrimidin-4-yl](methyl)amino}-N-phenylacetamide]
7.1 | Cc1sc2nc(-c3ccccn3)nc(N(C)CC(=O)Nc3cccnc3)c2c1C [Compound 183, 2-{[5,6-dimethyl-2-(pyridin-2-yl)thieno[2,3-d]pyrimidin-4-yl](methyl)amino}-N-(pyridin-3-yl)acetamide]
6.3 | CN(c1nc(-c2ccccn2)nc2c1CCC2)C1CCc2ccccc21 (stereo not drawn) [Compound 185, N-(2,3-dihydro-1H-inden-1-yl)-N-methyl-2-(pyridin-2-yl)-5H,6H,7H-cyclopenta[d]pyrimidin-4-amine]
5.3 | O=C(O)CCCCCNc1nc(-c2ccccn2)nc2c1CCC2 [Compound 186, 6-{[2-(pyridin-2-yl)-5H,6H,7H-cyclopenta[d]pyrimidin-4-yl]amino}hexanoic acid]
6.8 | c1ccc(-c2nc3c(c(N4CCCOC5CCCC54)n2)CCC3)nc1 (stereo not drawn) [Compound 187, 2-(4-{octahydro-2H-cyclopenta[b][1,4]oxazepin-5-yl]-5H,6H,7H-cyclopenta[d]pyrimidin-2-yl)pyridine]
5.7 | CC1CCN(c2nc(-c3ccccn3)nc3c2CCC3)C1 (stereo not drawn) [Compound 188, 2-[4-(3-methylpyrrolidin-1-yl)-5H,6H,7H-cyclopenta[d]pyrimidin-2-yl]pyridine]
6.7 | OCCC1CCCCCN1c1nc(-c2ccccn2)nc2c1CCC2 (stereo not drawn) [Compound 189, 2-{1-[2-(pyridin-2-yl)-5H,6H,7H-cyclopenta[d]pyrimidin-4-yl]azepan-2-yl}ethan-1-ol]
6.2 | O=C(NC1CCN(c2nc(-c3ccccn3)nc3scc(-c4ccccc4)c23)CC1)c1cccnc1 [Compound 191, N-{1-[5-phenyl-2-(pyridin-2-yl)thieno[2,3-d]pyrimidin-4-yl]piperidin-4-yl}pyridine-3-carboxamide]
5.9 | Cc1sc2nc(-c3ccccn3)nc(NCCCO)c2c1-c1ccccc1 [Compound 192, 3-{[6-methyl-5-phenyl-2-(pyridin-2-yl)thieno[2,3-d]pyrimidin-4-yl]amino}propan-1-ol]
6.7 | Cc1nc(-c2ccccn2)nc(N(C)CCN(C)c2ccccc2)c1C [Compound 196, N,5,6-trimethyl-N-{2-[methyl(phenyl)amino]ethyl}-2-(pyridin-2-yl)pyrimidin-4-amine]
6.3 | Cc1sc2nc(-c3ccccn3)nc(N(C)CC(C)O)c2c1-c1ccccc1 (stereo not drawn) [Compound 197, 1-{methyl[6-methyl-5-phenyl-2-(pyridin-2-yl)thieno[2,3-d]pyrimidin-4-yl]amino}propan-2-ol]
5.8 | c1ccc(-c2csc3nc(-c4ccccn4)nc(N4CCN(CCN5CCCC5)CC4)c23)cc1 [Compound 199, 1-[5-phenyl-2-(pyridin-2-yl)thieno[2,3-d]pyrimidin-4-yl]-4-[2-(pyrrolidin-1-yl)ethyl]piperazine]
5.7 | CCN(CC)CCCNc1nc(-c2ccccn2)nc2scc(-c3ccccc3)c12 [Compound 202, N-[3-(diethylamino)propyl]-5-phenyl-2-(pyridin-2-yl)thieno[2,3-d]pyrimidin-4-amine]
5.9 | c1ccc(-c2csc3nc(-c4ccccn4)nc(N4CCCC4)c23)cc1 [Compound 205, 2-[5-phenyl-4-(pyrrolidin-1-yl)thieno[2,3-d]pyrimidin-2-yl]pyridine]
5.7 | c1ccc(-c2csc3nc(-c4ccccn4)nc(N4CCN(c5ccccc5)CC4)c23)cc1 [Compound 206, 1-phenyl-4-[5-phenyl-2-(pyridin-2-yl)thieno[2,3-d]pyrimidin-4-yl]piperazine]

Continued, compound first:

SMILES | pEC50
COc1ccnc(-c2nc3c(c(N(C)CC(=O)N[C@H]4CCC[C@@H]4O)n2)CCC3)c1 (single isomer, unassigned) [Compound 173] | 6.8
CC(C)[C@@H](C(=O)Nc1cnn(C)c1)N(C)c1nc(-c2ccccn2)nc2c1CCC2 (single isomer, unassigned) [Compound 318] | 7.2
CN(CC(=O)NC(C)(C)C)c1nc(-c2cccnn2)nc2c1CCC2 [Compound 175, N-tert-butyl-2-{methyl[2-(pyridazin-3-yl)-5H,6H,7H-cyclopenta[d]pyrimidin-4-yl]amino}acetamide] | <5.0
COc1ccc(NC(=O)CN(C)c2nc(-c3ccccn3)nc3sc(C)c(C)c23)cc1 [Compound 181, 2-{[5,6-dimethyl-2-(pyridin-2-yl)thieno[2,3-d]pyrimidin-4-yl](methyl)amino}-N-(4-methoxyphenyl)acetamide] | 7.2
Cc1sc2nc(-c3ccccn3)nc(N(C)CC(=O)N(C)C)c2c1C [Compound 184, 2-{[5,6-dimethyl-2-(pyridin-2-yl)thieno[2,3-d]pyrimidin-4-yl](methyl)amino}-N,N-dimethylacetamide] | 6.9
CCN(CCO)c1nc(-c2ccccn2)nc2scc(-c3ccccc3)c12 [Compound 193, 2-{ethyl[5-phenyl-2-(pyridin-2-yl)thieno[2,3-d]pyrimidin-4-yl]amino}ethan-1-ol] | 6.4
CCc1cc(N2Cc3ccccc3N(C)CC2C)nc(-c2ccccn2)n1 (stereo not drawn) [Compound 194, 4-[6-ethyl-2-(pyridin-2-yl)pyrimidin-4-yl]-1,3-dimethyl-2,3,4,5-tetrahydro-1H-1,4-benzodiazepine] | 6.3
Cc1cccc(C)c1NC(=O)CN(C)c1nc(-c2ccccn2)nc(C)c1C [Compound 195, 2-{[5,6-dimethyl-2-(pyridin-2-yl)pyrimidin-4-yl](methyl)amino}-N-(2,6-dimethylphenyl)acetamide] | 6.5
CCC1COCCN1c1nc(-c2ccccn2)nc2scc(-c3ccccc3)c12 (stereo not drawn) [Compound 198, 3-ethyl-4-[5-phenyl-2-(pyridin-2-yl)thieno[2,3-d]pyrimidin-4-yl]morpholine] | 6
CN1CCN(c2nc(-c3ccccn3)nc3sc(-c4ccccc4)cc23)CC1 [Compound 200, 1-methyl-4-[6-phenyl-2-(pyridin-2-yl)thieno[2,3-d]pyrimidin-4-yl]piperazine] | 5.3
CC(C#N)CN(C)c1nc(-c2ccccn2)nc2sc(-c3ccccc3)cc12 (stereo not drawn) [Compound 201, 2-methyl-3-{methyl[6-phenyl-2-(pyridin-2-yl)thieno[2,3-d]pyrimidin-4-yl]amino}propanenitrile] | 6
c1ccc(-c2csc3nc(-c4ccccn4)nc(NC4CC4)c23)cc1 [Compound 203, N-cyclopropyl-5-phenyl-2-(pyridin-2-yl)thieno[2,3-d]pyrimidin-4-amine] | 5.7
c1ccc(-c2csc3nc(-c4ccccn4)nc(N4CCC4)c23)cc1 [Compound 204, 2-[4-(azetidin-1-yl)-5-phenylthieno[2,3-d]pyrimidin-2-yl]pyridine] | 5.6
c1ccc(-c2csc3nc(-c4ccccn4)nc(N4CCN(c5ccccn5)CC4)c23)cc1 [Compound 207, 1-[5-phenyl-2-(pyridin-2-yl)thieno[2,3-d]pyrimidin-4-yl]-4-(pyridin-2-yl)piperazine] | 6
